# Assay results taken from patent EP4671247A1, “SUBSTITUTED PYRAZOLOPYRIMIDINE COMPOUND AND PHARMACEUTICAL USE THEREOF” (Japan Tobacco Inc., priority 2023, dated 2024).
# Where two headings read alike, the source gives them in different places.
# Target: T1, NLRP3 inflammasome (Homo sapiens, UniProt Q96P20)
# T1 construct: host or cells: THP1-Null cells (PMA-differentiated, LPS-primed, nigericin-stimulated)
# Test: Evaluation of NLRP3 inflammasome inhibitory activity (inhibition of IL-1β production in LPS/Nigericin-stimulated THP1-Null cells, AlphaLISA)
# Type: cell-based
# Conditions: PMA, 1 µg/mL Lipopolysaccharides 3 hours, Nigericin 7.5 µmol/L 1.5 hours
# Procedure: The NLRP3 inflammasome inhibitory activity of test compounds were evaluated on the basis of the inhibitory activity of the IL-1β production in THP1-Null cells (Product Number: thp-null, InvivoGen).
# The supernatant of the culture was removed, and thereto was added media for assay (25 µL/well) containing 1 µg/mL Lipopolysaccharides (Product Number: L2654, Sigma-Aldrich (registered trademark)). […] The supernatant of the culture was removed. […] A solution containing a test compound (20 µL/well) was added to test compound-setting wells. […] The supernatant of the culture was cryonically stored (set at -20°C) until measurement of IL-1β.
# The amount of IL-1β in the culture supernatant was quantitated with AlphaLISA (registered trademark) Human IL-1β Detection Kit (Product Number: AL220C, Perkin Elmer). Fluorescence intensity was measured with a microplate reader EnSpier (Model number: 2300-00J, Perkin Elmer) or EnSight (Model number: HH34000000, Perkin Elmer) according to procedure manuals attached thereto. Inhibition rates of the test compound-setting wells were calculated on the basis of 100% for the blank-setting wells and 0% for the control-setting wells.
# [1] = IL-1β production in THP1-Null cells, read-out: IC50
# [2] = IL-1β production in THP1-Null cells
# [3] = IC50, IL-1β production in THP1-Null cells
# T1 sequence (Q96P20 whole entry): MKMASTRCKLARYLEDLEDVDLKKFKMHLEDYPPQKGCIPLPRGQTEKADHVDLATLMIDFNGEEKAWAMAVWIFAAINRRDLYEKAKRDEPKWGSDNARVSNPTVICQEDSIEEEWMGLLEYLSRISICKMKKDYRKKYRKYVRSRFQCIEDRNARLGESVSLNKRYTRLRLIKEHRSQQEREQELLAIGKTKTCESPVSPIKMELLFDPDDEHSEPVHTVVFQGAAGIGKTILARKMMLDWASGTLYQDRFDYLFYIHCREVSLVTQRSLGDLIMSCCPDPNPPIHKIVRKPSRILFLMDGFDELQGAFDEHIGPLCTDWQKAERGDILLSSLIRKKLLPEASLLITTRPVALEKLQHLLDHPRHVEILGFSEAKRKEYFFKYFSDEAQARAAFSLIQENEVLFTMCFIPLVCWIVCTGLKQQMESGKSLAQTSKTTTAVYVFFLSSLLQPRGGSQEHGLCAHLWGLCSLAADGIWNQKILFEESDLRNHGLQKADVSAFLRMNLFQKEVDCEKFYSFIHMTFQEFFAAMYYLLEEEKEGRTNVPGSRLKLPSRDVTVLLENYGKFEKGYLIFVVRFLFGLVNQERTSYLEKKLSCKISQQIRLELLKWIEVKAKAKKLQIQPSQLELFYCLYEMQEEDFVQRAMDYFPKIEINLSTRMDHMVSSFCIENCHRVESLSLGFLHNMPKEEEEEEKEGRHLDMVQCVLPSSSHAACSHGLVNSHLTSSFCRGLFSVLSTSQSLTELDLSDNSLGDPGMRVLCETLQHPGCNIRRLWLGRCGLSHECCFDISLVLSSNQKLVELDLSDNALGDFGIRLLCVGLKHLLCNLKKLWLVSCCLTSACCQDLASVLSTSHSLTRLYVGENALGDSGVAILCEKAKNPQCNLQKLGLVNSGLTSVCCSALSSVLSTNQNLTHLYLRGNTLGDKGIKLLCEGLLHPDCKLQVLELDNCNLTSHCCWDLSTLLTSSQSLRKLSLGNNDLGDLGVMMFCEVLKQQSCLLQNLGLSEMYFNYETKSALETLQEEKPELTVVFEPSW
SMILES,IC50 [1],further results
Cc1cc(Br)cc(C)c1-n1cc2c(=O)[nH]c(C3COCCO3)nc2n1 (racemic) [Example 28],0.19 µM,
Cc1cc(C2CC2)cc(C)c1-n1cc2c(=O)[nH]c(C3CCOC3)nc2n1 (racemic) [Example 29],,IC50 [2]: 0.009 µM
Cc1ccc(-n2cc3c(=O)[nH]c(C4CCCO4)nc3n2)c(C)c1 (racemic) [Example 31],0.79 µM,
Cc1ccc(-n2cc3c(=O)[nH]c(C4CCS(=O)(=O)C4)nc3n2)c(C)c1 (racemic) [Example 32],0.27 µM,
Cc1ccc(-n2cc3c(=O)[nH]c(C4CCCOC4)nc3n2)c(C)c1 (racemic) [Example 34],0.2 µM,
Cc1ccc(-n2cc3c(=O)[nH]c(C4CCO4)nc3n2)c(C)c1 (racemic) [Example 35],2.1 µM,
Cc1cc(C2CC2)cc(C)c1-n1cc2c(=O)[nH]c(C3CCO3)nc2n1 (racemic) [Example 36],0.15 µM,
Cc1ccc(-n2cc3c(=O)[nH]c(C4CCCCO4)nc3n2)c(C)c1 (racemic) [Example 40],0.43 µM,
COC(C)c1nc2nn(-c3c(C)cc(C4CC4)cc3C)cc2c(=O)[nH]1 (racemic) [Example 41],0.093 µM,
Cc1cc(Br)cc(C)c1-n1cc2c(=O)[nH]c(COC3CCCOC3)nc2n1 (racemic) [Example 56],0.35 µM,
Cc1cc(C2CC2)cc(C)c1-n1cc2c(=O)[nH]c(COC3CCCOC3)nc2n1 (racemic) [Example 57],0.34 µM,
Cc1cc(OC(F)F)cc(C)c1-n1cc2c(=O)[nH]c(C3CCOC3)nc2n1 (racemic) [Example 63],0.045 µM,
COC1(c2nc3nn(-c4c(C)cc(Br)cc4C)cc3c(=O)[nH]2)CCOC1 (racemic) [Example 86],0.35 µM,
Cc1cc(C2CC2)cc(C)c1-n1cc2c(=O)[nH]c(C3CC3F)nc2n1 (racemic) [Example 93],0.008 µM,
Cc1cc(Br)cc(C)c1-n1cc2c(=O)[nH]c(C3CC4CCN3CC4)nc2n1 (racemic) [Example 100],,IC50 [3]: 0.054 µM
Cc1cc(Br)cc(C)c1-n1cc2c(=O)[nH]c(CC3COCCO3)nc2n1 (racemic) [Example 113],0.14 µM,
Cc1cc(C2CC2)cc(C)c1-n1cc2c(=O)[nH]c(C3CC3(F)F)nc2n1 (racemic) [Example 114],0.017 µM,
Cc1cc(C2CC2)cc(C)c1-n1cc2c(=O)[nH]c(C34CCOCC3C4(F)F)nc2n1 (racemic) [Example 115],0.43 µM,
Cc1cc(Br)cc(C)c1-n1cc2c(=O)[nH]c(C34CCC(CO3)C4)nc2n1 (racemic) [Example 117],0.24 µM,
Cc1cc(C2CC2)cc(C)c1-n1cc2c(=O)[nH]c(C3CC4CCN3CC4)nc2n1 (racemic) [Example 119],,IC50 [3]: 0.031 µM

SMILES,IC50 [1],further results
COCC1C(c2nc3nn(-c4c(C)cc(C5CC5)cc4C)cc3c(=O)[nH]2)C1(F)F (racemic) [Example 120],0.04 µM,
Cc1cc(C2CC2)cc(C)c1-n1cc2c(=O)[nH]c(C(C)O)nc2n1 (racemic) [Example 123],,IC50 [2]: 0.023 µM
Cc1cc(C2CC2)cc(C)c1-n1cc2c(=O)[nH]c(C3CC3CO)nc2n1 (racemic) [Example 124],0.008 µM,
Cc1cc(C(C)(F)F)cc(C)c1-n1cc2c(=O)[nH]c(C3CC3(F)F)nc2n1 (racemic) [Example 125],0.024 µM,
Cc1cc(Br)cc(C)c1-n1cc2c(=O)[nH]c(CC(O)C(F)(F)F)nc2n1 (racemic) [Example 126],0.024 µM,
COC(Cc1nc2nn(-c3c(C)cc(Br)cc3C)cc2c(=O)[nH]1)C(F)(F)F (racemic) [Example 127],0.073 µM,
Cc1cc(C2CC2)cc(C)c1-n1cc2c(=O)[nH]c(C(C)F)nc2n1 (racemic) [Example 128],0.044 µM,
Cc1cc(OC(F)F)cc(C)c1-n1cc2c(=O)[nH]c(C3CC3(F)F)nc2n1 (racemic) [Example 133],0.041 µM,
CCC(O)c1nc2nn(-c3c(C)cc(C4CC4)cc3C)cc2c(=O)[nH]1 (racemic) [Example 134],0.024 µM,
Cc1cc(Br)cc(C)c1-n1cc2c(=O)[nH]c(C(C)O)nc2n1 (racemic) [Example 137],0.024 µM,
Cc1cc(Br)cc(C)c1-n1cc2c(=O)[nH]c(C(O)C(F)(F)F)nc2n1 (racemic) [Example 138],0.12 µM,
Cc1cc(Br)cc(C)c1-n1cc2c(=O)[nH]c(C(O)C(F)F)nc2n1 (racemic) [Example 139],0.036 µM,
Cc1cc(Br)cc(C)c1-n1cc2c(=O)[nH]c(C(O)C3CC3)nc2n1 (racemic) [Example 140],0.046 µM,
"Cc1cc(OC(F)F)cc(C)c1-n1cc2c(=O)[nH]c(C(C)O)nc2n1 (racemic) [Example 141, (RS)-2-{4-(difluoromethoxy)-2,6-dimethylphenyl}-6-(1-hydroxyethyl)-2,5-dihydro-4H-pyrazolo[3,4-d]pyrimidin-4-one]",0.061 µM,
"Cc1cc(C(C)(F)F)cc(C)c1-n1cc2c(=O)[nH]c([C@H]3C[C@@H]3F)nc2n1 (racemic) [Example 142, 2-[4-(1,1-difluoroethyl)-2,6-dimethylphenyl]-6-[(1RS,2SR)-2-fluorocyclopropyl]-2,5-dihydro-4H-pyrazolo[3,4-d]pyrimidin-4-one]",0.017 µM,
COCC(O)Cc1nc2nn(-c3c(C)cc(C4CC4)cc3C)cc2c(=O)[nH]1 (racemic) [Example 143],0.086 µM,
"Cc1cc(C(C)(F)F)cc(C)c1-n1cc2c(=O)[nH]c(C(C)O)nc2n1 (racemic) [Example 144, (RS)-2-{4-(1,1-difluoroethyl)-2,6-dimethylphenyl}-6-(1-hydroxyethyl)-2,5-dihydro-4H-pyrazolo[3,4-d]pyrimidin-4-one]",0.058 µM,
Cc1cc(Br)cc(C)c1-n1cc2c(=O)[nH]c(C3CC3C(=O)N(C)C)nc2n1 (racemic) [Example 149],0.022 µM,
Cc1cc(Br)cc(C)c1-n1cc2c(=O)[nH]c(C3CC3C(N)=O)nc2n1 (racemic) [Example 150],0.018 µM,
Cc1cc(Br)cc(C)c1-n1cc2c(=O)[nH]c(C3CC3C#N)nc2n1 (racemic) [Example 151],0.017 µM,

SMILES,IC50 [1],further results
Cc1cc(C2CC2)cc(C)c1-n1cc2c(=O)[nH]c([C@@H]3C[C@H]3C#N)nc2n1 (racemic) [Example 152],,IC50 [3]: 0.012 µM
Cc1cc(C2CC2)cc(C)c1-n1cc2c(=O)[nH]c(C(O)C(F)F)nc2n1 (racemic) [Example 158],,IC50 [2]: 0.026 µM
Cc1cc(Br)cc(C)c1-n1cc2c(=O)[nH]c(C3CCOCCO3)nc2n1 (racemic) [Example 160],0.037 µM,
"Cc1cc(C2CC2)cc(C)c1-n1cc2c(=O)[nH]c(C3CCOCCO3)nc2n1 (racemic) [Example 163, (RS)-2-(4-cyclopropyl-2,6-dimethylphenyl)-6-(1,4-dioxepan-5-yl)-2,5-dihydro-4H-pyrazolo[3,4-d]pyrimidin-4-one]",0.023 µM,
Cc1cc(OC(F)F)cc(C)c1-n1cc2c(=O)[nH]c(C(O)C(F)F)nc2n1 (racemic) [Example 167],0.23 µM,
Cc1cc(C(C)(F)F)cc(C)c1-n1cc2c(=O)[nH]c(C3CCOCCO3)nc2n1 (racemic) [Example 168],,IC50 [2]: 0.074 µM
Cc1cc(OC(F)F)cc(C)c1-n1cc2c(=O)[nH]c([C@@H]3C[C@H]3F)nc2n1 (racemic) [Example 171],,IC50 [2]: 0.024 µM
Cc1cc(Br)cc(C)c1-n1cc2c(=O)[nH]c(C3CC(F)(F)CCO3)nc2n1 (racemic) [Example 184],0.051 µM,
Cc1cc(Br)cc(C)c1-n1cc2c(=O)[nH]c(C3CC(F)(F)CO3)nc2n1 (racemic) [Example 189],0.071 µM,
Cc1cc(C2CC2)cc(C)c1-n1cc2c(=O)[nH]c(C3CC(F)(F)CO3)nc2n1 (racemic) [Example 190],0.041 µM,
Cc1cc(Br)cc(C)c1-n1cc2c(=O)[nH]c(C3CCC(F)(F)CO3)nc2n1 (racemic) [Example 191],0.072 µM,
Cc1cc(C2CC2)cc(C)c1-n1cc2c(=O)[nH]c(C3CC(F)(F)CCO3)nc2n1 (racemic) [Example 197],0.036 µM,
"Cc1cc(C2CC2)cc(C)c1-n1cc2c(=O)[nH]c(C3CCOC3)nc2n1 (single isomer, unassigned) [Example 50]",,IC50 [2]: 0.005 µM
"Cc1cc(C2CC2)cc(C)c1-n1cc2c(=O)[nH]c(C3CCOC3)nc2n1 (single isomer, unassigned) [Example 51]",,IC50 [2]: 0.024 µM
"Cc1cc(C2CC2)cc(C)c1-n1cc2c(=O)[nH]c(C3(F)CCOC3)nc2n1 (single isomer, unassigned) [Example 78]",,IC50 [2]: 0.033 µM
"Cc1cc(C2CC2)cc(C)c1-n1cc2c(=O)[nH]c(C3(F)CCOC3)nc2n1 (single isomer, unassigned) [Example 79]",,IC50 [2]: 0.075 µM
"Cc1cc(Br)cc(C)c1-n1cc2c(=O)[nH]c(C3CCOCC3O)nc2n1 (single isomer, unassigned) [Example 104]",0.015 µM,
"COC1CC(c2nc3nn(-c4c(C)cc(Br)cc4C)cc3c(=O)[nH]2)C1 (single isomer, unassigned) [Example 121]",,IC50 [2]: 0.038 µM
"COC1CC(c2nc3nn(-c4c(C)cc(Br)cc4C)cc3c(=O)[nH]2)C1 (single isomer, unassigned) [Example 122]",,IC50 [2]: 0.061 µM
"Cc1cc(C(C)(F)F)cc(C)c1-n1cc2c(=O)[nH]c(C3(F)CCOC3)nc2n1 (single isomer, unassigned) [Example 129]",,IC50 [2]: 0.05 µM
